From PubChem BioAssay (NCI)
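The compound was tested at five concentrations on cells cultured in 96-well plates, with a 48-hour exposure period. Abbreviation: GI50, concentration required for 50% inhibition of growth. At the TGI there is no net growth.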

Experiments:
Assay in all cases: growth of human tumour cells (NCI), 48 h
786-0 renal = test system: 786-0 renal
A498 renal = test system: A498 renal
A549 NSCLC = test system: A549 NSCLC
ACHN renal = test system: ACHN renal
BT-549 breast = test system: BT-549 breast
CAKI-1 renal = test system: CAKI-1 renal
CCRF-CEM leukemia = test system: CCRF-CEM leukemia
COLO 205 colon = test system: COLO 205 colon
DU-145 prostate = test system: DU-145 prostate
EKVX NSCLC = test system: EKVX NSCLC
HCC-2998 colon = test system: HCC-2998 colon
HCT-116 colon = test system: HCT-116 colon
HCT-15 colon = test system: HCT-15 colon
HL-60(TB) leukemia = test system: HL-60(TB) leukemia
HOP-62 NSCLC = test system: HOP-62 NSCLC
HOP-92 NSCLC = test system: HOP-92 NSCLC
HS 578T breast = test system: HS 578T breast
HT29 colon = test system: HT29 colon
IGROV1 ovarian = test system: IGROV1 ovarian
K-562 leukemia = test system: K-562 leukemia
KM12 colon = test system: KM12 colon
LOX IMVI melanoma = test system: LOX IMVI melanoma
M14 melanoma = test system: M14 melanoma
MALME-3M melanoma = test system: MALME-3M melanoma
MCF7 breast = test system: MCF7 breast
MDA-MB-231 breast = test system: MDA-MB-231 breast
MDA-MB-435 = test system: MDA-MB-435
MDA-MB-468 breast = test system: MDA-MB-468 breast
MOLT-4 leukemia = test system: MOLT-4 leukemia
NCI-H226 lung = test system: NCI-H226 lung
NCI-H23 lung = test system: NCI-H23 lung
NCI-H460 lung = test system: NCI-H460 lung
NCI-H522 lung = test system: NCI-H522 lung
NCI/ADR-RES ovarian = test system: NCI/ADR-RES ovarian
OVCAR-3 ovarian = test system: OVCAR-3 ovarian
OVCAR-4 ovarian = test system: OVCAR-4 ovarian
OVCAR-5 ovarian = test system: OVCAR-5 ovarian
OVCAR-8 ovarian = test system: OVCAR-8 ovarian
PC-3 prostate = test system: PC-3 prostate
RPMI-8226 leukemia = test system: RPMI-8226 leukemia
RXF 393 renal = test system: RXF 393 renal
SF-268 CNS = test system: SF-268 CNS
SF-295 CNS = test system: SF-295 CNS
SF-539 CNS = test system: SF-539 CNS
SK-MEL-2 melanoma = test system: SK-MEL-2 melanoma
SK-MEL-28 melanoma = test system: SK-MEL-28 melanoma
SK-MEL-5 melanoma = test system: SK-MEL-5 melanoma
SK-OV-3 ovarian = test system: SK-OV-3 ovarian
SN12C renal = test system: SN12C renal
SNB-19 CNS = test system: SNB-19 CNS
SNB-75 CNS = test system: SNB-75 CNS
SR leukemia = test system: SR leukemia
SW-620 colon = test system: SW-620 colon
T-47D breast = test system: T-47D breast
TK-10 renal = test system: TK-10 renal
U251 CNS = test system: U251 CNS
UACC-257 melanoma = test system: UACC-257 melanoma
UACC-62 melanoma = test system: UACC-62 melanoma
UO-31 renal = test system: UO-31 renal

## Nc1nc2cc(-c3ccc4ncnc(NCc5ccccc5)c4c3)ccc2o1
786-0 renal
  GI50: 13 µM
  TGI: 26.3 µM
A498 renal
  GI50: 3.55 µM
  TGI: 18.1 µM
A549 NSCLC
  GI50: 4.16 µM
  TGI: 29.4 µM
ACHN renal
  GI50: 5.27 µM
  TGI: 18.2 µM
BT-549 breast
  GI50: 4.31 µM
  TGI: 16.7 µM
CAKI-1 renal
  GI50: 7.7 µM
  TGI: 21 µM
CCRF-CEM leukemia
  GI50: 6.08 µM
  TGI: 30.2 µM
COLO 205 colon
  GI50: 14.4 µM
  TGI: 30 µM
DU-145 prostate
  GI50: 4.7 µM
  TGI: 20.5 µM
EKVX NSCLC
  GI50: 3.47 µM
  TGI: 20.2 µM
HCC-2998 colon
  GI50: 9.11 µM
  TGI: 23 µM
HCT-116 colon
  GI50: 3.89 µM
  TGI: 17.5 µM
HCT-15 colon
  GI50: 6.45 µM
  TGI: 27.3 µM
HL-60(TB) leukemia
  GI50: 10.4 µM
  TGI: 24 µM
HOP-62 NSCLC
  GI50: 10.7 µM
  TGI: 34.3 µM
HOP-92 NSCLC
  GI50: 2.11 µM
  TGI: 7.5 µM
HS 578T breast
  GI50: 2.41 µM
  TGI: 7.52 µM
HT29 colon
  GI50: 7.45 µM
  TGI: 58.3 µM
IGROV1 ovarian
  GI50: 1.98 µM
  TGI: 5.5 µM
K-562 leukemia
  GI50: 11.2 µM
  TGI: 23.2 µM
KM12 colon
  GI50: 6.77 µM
  TGI: 25.6 µM
LOX IMVI melanoma
  GI50: 3.07 µM
  TGI: 15.9 µM
M14 melanoma
  GI50: 12.4 µM
  TGI: 35.6 µM
MALME-3M melanoma
  GI50: 3.2 µM
  TGI: 13.3 µM
MCF7 breast
  GI50: 2.47 µM
  TGI: 11.1 µM
MDA-MB-231 breast
  GI50: 7.96 µM
  TGI: 21.4 µM
MDA-MB-435
  GI50: 11 µM
  TGI: 24.6 µM
MDA-MB-468 breast
  GI50: 1.81 µM
  TGI: 7.67 µM
MOLT-4 leukemia
  GI50: 4.43 µM
  TGI: 19 µM
NCI-H226 lung
  GI50: 10.1 µM
  TGI: 39.4 µM
NCI-H23 lung
  GI50: 10.9 µM
  TGI: 35.6 µM
NCI-H460 lung
  GI50: 6.48 µM
  TGI: 27.7 µM
NCI-H522 lung
  GI50: 8.72 µM
  TGI: 38.4 µM
NCI/ADR-RES ovarian
  GI50: 11 µM
  TGI: 49.5 µM
OVCAR-3 ovarian
  GI50: 3.49 µM
  TGI: 21.6 µM
OVCAR-4 ovarian
  GI50: 7 µM
  TGI: 28.1 µM
OVCAR-5 ovarian
  GI50: 4.03 µM
  TGI: 16.9 µM
OVCAR-8 ovarian
  GI50: 3.41 µM
  TGI: 17.7 µM
PC-3 prostate
  GI50: 12.7 µM
  TGI: 31.9 µM
RPMI-8226 leukemia
  GI50: 3.83 µM
  TGI: 22.3 µM
RXF 393 renal
  GI50: 3.62 µM
  TGI: 16.3 µM
SF-268 CNS
  GI50: 10.9 µM
  TGI: 43.4 µM
SF-295 CNS
  GI50: 14.1 µM
  TGI: 35 µM
SF-539 CNS
  GI50: 4.08 µM
  TGI: 14.9 µM
SK-MEL-2 melanoma
  GI50: 14.7 µM
  TGI: 30.6 µM
SK-MEL-28 melanoma
  GI50: 12.4 µM
  TGI: 24.8 µM
SK-MEL-5 melanoma
  GI50: 12.2 µM
  TGI: 28.1 µM
SK-OV-3 ovarian
  GI50: 3.26 µM
  TGI: 12.1 µM
SN12C renal
  GI50: 5.14 µM
  TGI: 18.3 µM
SNB-19 CNS
  GI50: 10.8 µM
  TGI: 25.4 µM
SNB-75 CNS
  GI50: 2.15 µM
  TGI: 5.24 µM
SR leukemia
  GI50: 10.3 µM
  TGI: 27.6 µM
SW-620 colon
  GI50: 9.63 µM
  TGI: 31.1 µM
T-47D breast
  GI50: 10.4 µM
  TGI: 35.3 µM
TK-10 renal
  GI50: 2.98 µM
  TGI: 16.1 µM
U251 CNS
  GI50: 10.4 µM
  TGI: 32.6 µM
UACC-257 melanoma
  GI50: 14.4 µM
  TGI: 32.2 µM
UACC-62 melanoma
  GI50: 14.7 µM
  TGI: 29.6 µM
UO-31 renal
  GI50: 4.01 µM
  TGI: 18.3 µM
